As a reminder, the chromatographic logP is lipophilicity estimated from chromatographic retention. A low value points to lower lipophilicity.

The conditions of data set [1]: for log P (HCOOH) / logp [b]: pH 2.7; for logp [a]: pH 2.3; for logp [c]: pH 7.8.
Excerpt: (§1) The determination is effected in the acidic range at pH 2.3 using 0.1% aqueous phosphoric acid and acetonitrile as eluents; linear gradient from 10% acetonitrile to 95% acetonitrile. • ^[b] The LC-MS determination in the acidic range is effected at pH 2.7 using 0.1% aqueous formic acid and acetonitrile (contains 0.1% formic acid) as eluents; linear gradient from 10% acetonitrile to 95% acetonitrile. • ^[c] The LC-MS determination in the neutral range is effected at pH 7.8 using 0.001 molar aqueous ammonium hydrogencarbonate solution and acetonitrile as eluents; linear gradient from 10% acetonitrile to 95% acetonitrile.
(§2) The calibration is effected with unbranched alkan-2-ones (having 3 to 16 carbon atoms) with known log P values (determination of the log P values using the retention times by linear interpolation between two successive alkanones).
Data set [2] deals with Phytophthora infestans. Put plainly: whole plant or invertebrate. It is filed as in vivo. The settings on record: for pest or weed control at 10 ppm: Phytophthora infestans, in Solanum lycopersicum, 72 h, read-out: efficacy.
Data set [3] relates to Plasmopara viticola. Put plainly: Plasmopara test (grapevine)/protective. The settings on record: grapevine plants, protective spray, 10 ppm active ingredient, evaluation 6 days after inoculation, 0% = control, 100% = no infection; for pest or weed control at 10 ppm: Plasmopara viticola, 144 h, read-out: efficacy. It is filed as in vivo. The procedure: Plasmopara Test (Grapevine)/Protective
To prepare an appropriate active ingredient preparation, 1 part by weight of active ingredient is mixed with the stated amounts of solvent and emulsifier, and the concentrate is diluted with water to the desired concentration.
To test for protective efficacy, young plants are sprayed with the active ingredient preparation at the stated application rate. After the spray coating has dried on, the plants are inoculated with an aqueous spore suspension of Plasmopara viticola and then remain in an incubation cabinet at about 20° C. and 100% relative atmospheric humidity for 1 day. The plants are then placed in a greenhouse at approx. 21° C. and approx. 90% air humidity for 4 days. The plants are then moistened and placed in an incubation cabinet for 1 day.
Evaluation follows 6 days after the inoculation.

A short description of data set [4]: physchem.
Excerpt: as §1, §2

Regarding `N=C(N)SCc1ccccc1C1CC(c2csc(C3CCN(C(=O)Cn4nc(C(F)F)cc4C(F)F)CC3)n2)=NO1` (stereo not drawn) [2-{3-[2-(1-{[3,5-Bis(difluoromethyl)-1H-pyrazol-1-yl]acetyl}piperidin-4-yl)-1,3-thiazol-4-yl]-4,5-dihydro-1,2-oxazol-5-yl}benzyl imidothiocarbamate], the “log P (HCOOH)” value in data set [1] stood at 1.68.

Take `CC#CCOc1ccccc1C1CC(c2csc(C3CCN(C(=O)Cn4nc(C(F)F)cc4C(F)F)CC3)n2)=NO1` (racemic) [I-35]: in data set [2] (tomato plants, protective spray, 10 ppm active ingredient, evaluation 3 days after inoculation, 0% = control, 100% = no infection), the efficacy came to 88%. For the same compound, in data set [1], the “logp [a]” value is 3.65^[a] and the “logp [c]” value is 3.55^[c];.

As to `O=C(CC(F)(F)F)Oc1ccccc1C1CC(c2csc(C3CCN(C(=O)Cn4nc(C(F)F)cc4C(F)F)CC3)n2)=NO1` (racemic) [I-36], in data set [1], the “logp [a]” value is 9.43^[a]; and the “logp [c]” value was 3.52^[c].

With `C=CCOc1ccccc1C1CC(c2csc(C3CCN(C(=O)Cn4nc(C(F)F)cc4C(F)F)CC3)n2)=NO1` (stereo not drawn) [I-14, 1-[4-(4-{5-[2-(Allyloxy)phenyl]-4,5-dihydro-1,2-oxazol-3-yl}-1,3-thiazol-2-yl)piperidin-1-yl]-2-[3,5-bis(difluoromethyl)-1H-pyrazol-1-yl]ethanone], the pest or weed control at 10 ppm was determined as 98% in data set [2] and 100% in data set [3]. The chromatographic logP in data set [4] (pH 2.7, logp [b]) was 3.63; in data set [4] (pH 7.8, logp [c]) it was 3.65.

For `O=C(Cn1nc(C(F)F)cc1C(F)F)N1CCC(c2nc(C3=NOC(c4ccccc4[N+](=O)[O-])C3)cs2)CC1` (stereo not drawn) [I-10, 2-[3,5-Bis(difluoromethyl)-1H-pyrazol-1-yl]-1-(4-{4-[5-(2-nitrophenyl)-4,5-dihydro-1,2-oxazol-3-yl]-1,3-thiazol-2-yl}piperidin-1-yl)ethanone], the pest or weed control at 10 ppm is 97% in data set [2] and 100% in data set [3]. Also, in data set [4] (pH 2.7, logp [b]), the chromatographic logP stood at 3.19.

Consider `CC#CCOc1ccc(C2CC(c3csc(C4CCN(C(=O)Cn5nc(C(F)F)cc5C(F)F)CC4)n3)=NO2)cc1` (racemic) [I-48], for which, in data set [1], the “logp [a]” value was 3.43^[a] and the “logp [c]” value is 3.42^[c];.

In the case of `C#CCOc1cccc(F)c1C1CC(c2csc(C3CCN(C(=O)Cn4nc(C(F)F)cc4C(F)F)CC3)n2)=NO1` (racemic) [I-30], in data set [1], the “logp [a]” value was 3.18^[a]; and the “logp [c]” value is 3.15^[c].

Take `Nc1ccccc1C1CC(c2csc(C3CCN(C(=O)Cn4nc(C(F)F)cc4C(F)F)CC3)n2)=NO1` (stereo not drawn) [I-41, 1-(4-{4-[5-(2-Aminophenyl)-4,5-dihydro-1,2-oxazol-3-yl]-1,3-thiazol-2-yl}piperidin-1-yl)-2-[3,5-bis(difluoromethyl)-1H-pyrazol-1-yl]ethanone]: the pest or weed control at 10 ppm was 94% in data set [2] and 100% in data set [3]. Further, the chromatographic logP in data set [4] (pH 2.3) was 2.7; in data set [4] (pH 7.8, logp [c]), 2.71.

Regarding `O=C(Cn1nc(C(F)F)cc1C(F)F)N1CCC(c2nc(C3=NOC(c4ccccc4O)C3)cs2)CC1` (stereo not drawn) [I-9, 2-[3,5-Bis(difluoromethyl)-1H-pyrazol-1-yl]-1-(4-{4-[5-(2-hydroxyphenyl)-4,5-dihydro-1,2-oxazol-3-yl]-1,3-thiazol-2-yl}piperidin-1-yl)ethanone], the pest or weed control at 10 ppm in data set [2] came to 96%; in data set [3], 99%. Besides, the chromatographic logP in data set [4] (pH 2.3) is 2.58; in data set [4] (pH 7.8, logp [c]), 2.6.

For the compound `COCCOc1ccccc1C1CC(c2csc(C3CCN(C(=O)Cn4nc(C(F)F)cc4C(F)F)CC3)n2)=NO1` (stereo not drawn) [I-19, 2-[3,5-Bis(difluoromethyl)-1H-pyrazol-1-yl]-1-[4-(4-{5-[2-(2-methoxyethoxy)phenyl]-4,5-dihydro-1,2-oxazol-3-yl}-1,3-thiazol-2-yl)piperidin-1-yl]ethanone], the pest or weed control at 10 ppm in data set [2] and in data set [3] was 96% in each case. The chromatographic logP in data set [4] (pH 2.7, logp [b]) was found to be 3.26; in data set [4] (pH 7.8, logp [c]), 3.18.

For `CC(C)=CCOc1ccccc1C1CC(c2csc(C3CCN(C(=O)Cn4nc(C(F)F)cc4C(F)F)CC3)n2)=NO1` (stereo not drawn) [I-20, 2-[3,5-Bis(difluoromethyl)-1H-pyrazol-1-yl]-1-{4-[4-(5-{2-[(3-methylbut-2-en-1-yl)oxy]phenyl}-4,5-dihydro-1,2-oxazol-3-yl)-1,3-thiazol-2-yl]piperidin-1-yl}ethanone], the pest or weed control at 10 ppm in data set [2] came out at 95%; in data set [3] it was 98%. The chromatographic logP in data set [4] (pH 2.7, logp [b]) worked out at 4.19; in data set [4] (pH 7.8, logp [c]), 4.11.

Take `O=Cc1ccccc1C1CC(c2csc(C3CCN(C(=O)Cn4nc(C(F)F)cc4C(F)F)CC3)n2)=NO1` (stereo not drawn) [I-26, 2-{3-[2-(1-{[3,5-Bis(difluoromethyl)-1H-pyrazol-1-yl]acetyl}piperidin-4-yl)-1,3-thiazol-4-yl]-4,5-dihydro-1,2-oxazol-5-yl}benzaldehyde]: the figures for the pest or weed control at 10 ppm in data set [2] and in data set [3] were 97% and 100%, respectively. This compound came in with a chromatographic logP in data set [4] (pH 2.7, logp [b]) of 2.98.

For the compound `O=C(Cn1nc(C(F)F)cc1C(F)F)N1CCC(c2nc(C3=NOC(c4ccccc4COCC(F)(F)F)C3)cs2)CC1` (racemic) [I-52], in data set [1], the “logp [b]” value was 3.4^[b] and the “logp [c]” value is 3.6^[c];.

With `O=C(Cn1nc(C(F)F)cc1C(F)F)N1CCC(F)(c2nc(C3=NOC(c4ccccc4F)C3)cs2)CC1` (racemic) [I-4], in data set [3], the efficacy amounted to 100%. Moreover, in data set [1], the “logp [b]” value was 3.49^[b].

Consider `CCC#CCOc1ccc(C2CC(c3csc(C4CCN(C(=O)Cn5nc(C(F)F)cc5C(F)F)CC4)n3)=NO2)cc1` (racemic) [I-47], for which, in data set [1], the “logp [a]” value was 3.76^[a] and the “logp [c]” value is 3.74^[c];.

With `CC#CCOc1cccc(F)c1C1CC(c2csc(C3CCN(C(=O)Cn4nc(C(F)F)cc4C(F)F)CC3)n2)=NO1` (racemic) [I-29], in data set [1], the “logp [a]” value was 3.46^[a]; and the “logp [c]” value was 3.42^[c].

Consider `CCCCOCc1ccccc1C1CC(c2csc(C3CCN(C(=O)Cn4nc(C(F)F)cc4C(F)F)CC3)n2)=NO1` (racemic) [I-16], for which, in data set [1], the “logp [b]” value is 4.24^[b].

Take `CCC#CCOc1cccc(C2CC(c3csc(C4CCN(C(=O)Cn5nc(C(F)F)cc5C(F)F)CC4)n3)=NO2)c1` (racemic) [I-34]: in data set [1], the “logp [a]” value is 3.83^[a] and the “logp [c]” value is 3.74^[c];.

On to `O=C(Oc1ccccc1C1CC(c2csc(C3CCN(C(=O)Cn4nc(C(F)F)cc4C(F)F)CC3)n2)=NO1)C1CC1` (racemic) [I-33], for which, in data set [1], the “logp [a]” value was 3.34^[a] and the “logp [c]” value was 3.28^[c];.

For `CCS(=O)(=O)Cc1ccccc1C1CC(c2csc(C3CCN(C(=O)Cn4nc(C(F)F)cc4C(F)F)CC3)n2)=NO1` (racemic) [I-53], the “logp [b]” value in data set [1] is 2.76^[b].

For `O=C(Cn1nc(C(F)F)cc1C(F)F)N1CCC(c2nc(C=NO)cs2)CC1` [2-(1-{[3,5-Bis(difluoromethyl)-1H-pyrazol-1-yl]acetyl}piperidin-4-yl)-1,3-thiazole-4-carbaldehyde oxime], the “log P (HCOOH)” value in data set [1] was found to be 1.98. Further, the chromatographic logP in data set [4] (pH 2.7, log P (HCOOH)) amounted to 1.93.

As for `CC(C)(C)OC(=O)N1CCC(F)(c2nc(C=NO)cs2)CC1` (mixture of isomers) [tert-Butyl 4-fluoro-4-{4-[(E/Z)-(hydroxyimino)methyl]-1,3-thiazol-2-yl}piperidine-1-carboxylate], the “log P (HCOOH)” value in data set [1] was determined as 2.53.

For “tert-Butyl 4-[4-(5-{2-[(cyclopropylmethoxy)carbonyl]phenyl}-4,5-dihydro-1,2-oxazol-3-yl)-1,3-thiazol-2-yl]piperidine-1-carboxylate [X-a-10]”, the “log P (HCOOH)” value in data set [1] stood at 4.99.

For the origin of these results see patent publication US9167821B2 (priority 2009, dated 2015).
